# Assay results from ChEMBL document CHEMBL1201862, “PubChem BioAssay data set” (2004).
#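 Cultured in 96-well plates, cells were exposed to test compound for 48 hours across five concentrations. GI50 is the concentration that inhibits growth by half.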 Calls of active or inactive are those of the source. Cut-off read from the data, not from the text of the source: active = GI50 up to about 1.1 µM and inactive = higher.
# Key:
# Experiment in all cases: NCI-60 cell line screen, 48 h
# U-251 = system: U-251
# MCF7 = system: MCF7
# NCI-H460 = system: NCI-H460
# MDA-MB-231 = system: MDA-MB-231
# NCI/ADR-RES = system: NCI/ADR-RES
# LOX IMVI = system: LOX IMVI
# UACC-257 = system: UACC-257
# HCT-116 = system: HCT-116
# SK-MEL-28 = system: SK-MEL-28
# NCI-H23 = system: NCI-H23
# SF-295 = system: SF-295
# MDA-MB-435 = system: MDA-MB-435
# MDA-N = system: MDA-N
# SK-OV-3 = system: SK-OV-3
# SNB-19 = system: SNB-19
# SW-620 = system: SW-620
# SN12C = system: SN12C
# OVCAR-3 = system: OVCAR-3
# SK-MEL-2 = system: SK-MEL-2
# A498 = system: A498
# ACHN = system: ACHN
# M14 = system: M14
# HOP-62 = system: HOP-62
# OVCAR-4 = system: OVCAR-4
# SNB-75 = system: SNB-75
# OVCAR-5 = system: OVCAR-5
# CAKI-1 = system: CAKI-1
# PC-3 = system: PC-3
# A549 = system: A549
# HOP-92 = system: HOP-92
# RXF 393 = system: RXF 393
# SF-268 = system: SF-268
# OVCAR-8 = system: OVCAR-8
# MOLT-4 = system: MOLT-4
# KM12 = system: KM12
# Hs-578T = system: Hs-578T
# SR = system: SR
# BT-549 = system: BT-549
# SK-MEL-5 = system: SK-MEL-5
# T47D = system: T47D
# Malme-3M = system: Malme-3M
# IGROV-1 = system: IGROV-1
# NCI-H522 = system: NCI-H522
# UO-31 = system: UO-31
# DU-145 = system: DU-145
# K562 = system: K562
# EKVX = system: EKVX
# HL-60 = system: HL-60
# HT-29 = system: HT-29
# HCT-15 = system: HCT-15
# UACC-62 = system: UACC-62
# TK-10 = system: TK-10
# 786-0 = system: 786-0
# COLO 205 = system: COLO 205
# CCRF-CEM = system: CCRF-CEM
# RPMI-8226 = system: RPMI-8226
# SF-539 = system: SF-539
# NCI-H226 = system: NCI-H226
smiles,measurement,setting,value
N=C1C(O)C2(I)c3ccccc3N3C(=N)C(O)C4c5ccccc5N1C4C32 (centres undefined),GI50,U-251,22.1 µM (inactive)
same,GI50,MCF7,19.6 µM (inactive)
same,GI50,NCI-H460,37.7 µM (inactive)
same,GI50,MDA-MB-231,26.4 µM (inactive)
same,GI50,NCI/ADR-RES,61.2 µM (inactive)
same,GI50,LOX IMVI,39 µM (inactive)
same,GI50,UACC-257,> 100 µM (inactive)
same,GI50,HCT-116,36.7 µM (inactive)
same,GI50,SK-MEL-28,90.6 µM (inactive)
same,GI50,NCI-H23,35.6 µM (inactive)
same,GI50,SF-295,47.8 µM (inactive)
same,GI50,MDA-MB-435,20.4 µM (inactive)
same,GI50,MDA-N,42.7 µM (inactive)
same,GI50,SK-OV-3,40.6 µM (inactive)
same,GI50,SNB-19,63.7 µM (inactive)
same,GI50,SW-620,52.8 µM (inactive)
same,GI50,SN12C,54.3 µM (inactive)
same,GI50,OVCAR-3,32.1 µM (inactive)
same,GI50,SK-MEL-2,> 100 µM (inactive)
same,GI50,A498,> 100 µM (inactive)
same,GI50,ACHN,39.4 µM (inactive)
same,GI50,M14,59 µM (inactive)
same,GI50,HOP-62,38.3 µM (inactive)
same,GI50,OVCAR-4,16 µM (inactive)
same,GI50,SNB-75,> 100 µM (inactive)
same,GI50,OVCAR-5,> 100 µM (inactive)
same,GI50,CAKI-1,93.5 µM (inactive)
same,GI50,PC-3,41.7 µM (inactive)
same,GI50,A549,51.8 µM (inactive)
same,GI50,HOP-92,37.4 µM (inactive)
same,GI50,RXF 393,> 100 µM (inactive)
same,GI50,SF-268,> 100 µM (inactive)
same,GI50,OVCAR-8,33.5 µM (inactive)
same,GI50,MOLT-4,27.5 µM (inactive)
same,GI50,KM12,15.1 µM (inactive)
same,GI50,Hs-578T,61.8 µM (inactive)
same,GI50,SR,34.3 µM (inactive)
same,GI50,BT-549,> 100 µM (inactive)
same,GI50,SK-MEL-5,30.8 µM (inactive)
same,GI50,T47D,> 100 µM (inactive)
same,GI50,Malme-3M,21.1 µM (inactive)
same,GI50,IGROV-1,19.9 µM (inactive)
same,GI50,NCI-H522,25.9 µM (inactive)
same,GI50,UO-31,> 100 µM (inactive)
same,GI50,DU-145,> 100 µM (inactive)
same,GI50,K562,26.4 µM (inactive)
same,GI50,EKVX,> 100 µM (inactive)
same,GI50,HL-60,20.2 µM (inactive)
same,GI50,HT-29,95.1 µM (inactive)
same,GI50,HCT-15,32.3 µM
same,GI50,UACC-62,> 100 µM (inactive)
same,GI50,TK-10,> 100 µM (inactive)
same,GI50,786-0,30.8 µM (inactive)
same,GI50,COLO 205,26.2 µM (inactive)
same,GI50,CCRF-CEM,2.3 µM (inactive)
same,GI50,RPMI-8226,40.9 µM (inactive)
Cn1c(N)c(/N=N/c2ccc(S(N)(=O)=O)cc2)c(=O)n(C)c1=O,GI50,U-251,45.9 µM (inactive)
same,GI50,MCF7,> 100 µM (inactive)
same,GI50,NCI-H460,> 100 µM (inactive)
same,GI50,MDA-MB-231,> 100 µM (inactive)
same,GI50,NCI/ADR-RES,> 100 µM (inactive)
same,GI50,LOX IMVI,> 100 µM (inactive)
same,GI50,UACC-257,> 100 µM (inactive)
same,GI50,HCT-116,> 100 µM (inactive)
same,GI50,SK-MEL-28,> 100 µM (inactive)
same,GI50,NCI-H23,> 100 µM (inactive)
same,GI50,SF-295,> 100 µM (inactive)
same,GI50,MDA-MB-435,> 100 µM (inactive)
same,GI50,MDA-N,> 100 µM (inactive)
same,GI50,SK-OV-3,79.8 µM (inactive)
same,GI50,SNB-19,81.8 µM (inactive)
same,GI50,SW-620,> 100 µM (inactive)
same,GI50,SN12C,> 100 µM (inactive)
same,GI50,OVCAR-3,> 100 µM (inactive)
same,GI50,SK-MEL-2,> 100 µM (inactive)
same,GI50,A498,> 100 µM (inactive)
same,GI50,ACHN,96.8 µM (inactive)
same,GI50,M14,> 100 µM (inactive)
same,GI50,HOP-62,40.9 µM (inactive)
same,GI50,OVCAR-4,> 100 µM (inactive)
same,GI50,SNB-75,22.6 µM (inactive)
same,GI50,OVCAR-5,> 100 µM (inactive)
same,GI50,CAKI-1,> 100 µM (inactive)
same,GI50,PC-3,> 100 µM (inactive)
same,GI50,A549,> 100 µM (inactive)
same,GI50,HOP-92,> 100 µM (inactive)
same,GI50,RXF 393,> 100 µM (inactive)
same,GI50,SF-268,88.1 µM (inactive)
same,GI50,OVCAR-8,> 100 µM (inactive)
same,GI50,MOLT-4,> 100 µM (inactive)
same,GI50,KM12,> 100 µM (inactive)
same,GI50,Hs-578T,22.3 µM (inactive)
same,GI50,SR,> 100 µM (inactive)
same,GI50,BT-549,> 100 µM (inactive)
same,GI50,SK-MEL-5,> 100 µM (inactive)
same,GI50,T47D,> 100 µM (inactive)
same,GI50,Malme-3M,> 100 µM (inactive)
same,GI50,IGROV-1,> 100 µM (inactive)
same,GI50,SF-539,> 100 µM (inactive)
same,GI50,NCI-H522,80.9 µM (inactive)
same,GI50,UO-31,> 100 µM (inactive)
same,GI50,DU-145,> 100 µM (inactive)
same,GI50,K562,> 100 µM (inactive)
same,GI50,EKVX,> 100 µM (inactive)
same,GI50,HL-60,> 100 µM (inactive)
same,GI50,HT-29,> 100 µM (inactive)
same,GI50,HCT-15,> 100 µM
same,GI50,UACC-62,91.8 µM (inactive)
same,GI50,NCI-H226,> 100 µM (inactive)
same,GI50,TK-10,> 100 µM (inactive)
same,GI50,786-0,53.1 µM (inactive)
same,GI50,COLO 205,> 100 µM (inactive)
same,GI50,CCRF-CEM,> 100 µM (inactive)
same,GI50,RPMI-8226,> 100 µM (inactive)
